# Measured values taken from patent US20250154152A1, “INHIBITORS OF NAEGLERIA FOWLERI” (Wisconsin Alumni Research Foundation, priority 2023, published 2025).
# System: N. fowleri strain Nf69 (ATCC 30215) trophozoites
# Assay: Determination of EC50 values against Naegleria fowleri (growth inhibition, CellTiter Glo, 48 h)
# Format: cell-based
# Details: ATCC30215, 48 h, read-out: EC50 uM against N. fowleri
# Protocol: N. fowleri strain Nf69 (ATCC 30215) trophozoites were cultured axenically. Amoeba were seeded at […] in 100 μL of the indicated medium in white TC-treated 96-well plates (Thermo Scientific Nunc Microwell 136101). Cells were seeded into Nelson's Complete Media (NCM, 0.17% liver infusion broth (BD Difco, Franklin Lakes, NJ), 0.17% glucose, 0.012% sodium chloride, 0.0136% potassium phosphate monobasic, 0.0142% sodium phosphate dibasic, 0.0004% calcium chloride, 0.0002% magnesium sulfate, 10% heat-inactivated fetal bovine serum (FBS), 1% penicillin-streptomycin) at 37° C. in 96-well tissue culture plates. Vehicle or compound at concentrations initially ranging from 20 to 0.375 μM were added to cells, followed by culture for 48 h (37° C., 5% CO2). Plates were equilibrated to rt for 15 min and CellTiter Glo reagent was added followed by orbital shaking for 2 min. After an additional incubation (rt, 10 min), luminescence was scored on a BioTek Synergy H1 microplate reader. Luminescence values were used to calculate percent cell growth inhibition (based on controls) for each concentration of compound tested. Averages of triplicates were calculated and fit to dose-response curves for the determination of EC50 values, using Prism 9.0 (GraphPad Software, San Diego, CA). […] Other controls included media alone, cells and media, and vehicle and media. For very potent compounds, concentration of reagent in the dose-response assays were reduced to provide an appropriate range for EC50 value resolution.
# Compounds of the present technology were tested for growth inhibition of N. fowleri per General Procedure 13, above.
row,SMILES,EC50 [µM]
1,"CN1CCC[C@H]2c3nc4ccc(C(F)(F)F)cc4c(=O)n3CC[C@@H]21 [trans-10d-ent-2, (4aS,13bR)-4-methyl-10-(trifluoromethyl)-1,2,3,4,4a,5,6,13b-octahydro-8H-[1,6]naphthyridino[5,6-b]quinazolin-8-one]",1 to 10

# Same assay, conditions: ATCC30215, N. fowleri Nf69 trophozoites, 48 h culture, 37° C., CellTiter Glo luminescence, read-out: EC50 uM against N. fowleri
row,SMILES,EC50 [µM]
1,"Cn1c([C@@H]2CCCN(CC3COC3)C2)nc2cc(Cl)c(Cl)cc2c1=O [Compound R-14f, (R)-6,7-dichloro-3-methyl-2-(1-(oxetan-3-ylmethyl)piperidin-3-yl)quinazolin-4(3H)-one]",0.1 to 1
2,"Cc1cccc2nc3n(c(=O)c12)CC[C@@H]1[C@H]3CCCN1C (racemic) [cis-5b, (±)-(4aR,13bR)-4,9-dimethyl-1,2,3,4,4a,5,6,13b-octahydro-8H-[1,6]naphthyridino[5,6-b]quinazolin-8-one]",> 10
3,"Cn1c([C@@H]2CCCN(CCO)C2)nc2cc(Cl)c(Cl)cc2c1=O [Compound R-14z, (R)-6,7-dichloro-2-(1-(2-hydroxyethyl)piperidin-3-yl)-3-methylquinazolin-4(3H)-one]",> 10
4,"CN1CCC[C@@H]2c3nc4ccccc4c(=O)n3CC[C@H]21 (racemic) [trans-5a, (±)-(4aR,13bS)-4-methyl-1,2,3,4,4a,5,6,13b-octahydro-8H-[1,6]naphthyridino[5,6-b]quinazolin-8-one]",> 10
5,"Cn1c([C@@H]2CCCN(Cc3cnccn3)C2)nc2cc(Cl)c(Cl)cc2c1=O [Compound R-14x, (R)-6,7-dichloro-3-methyl-2-(1-(pyrazin-2-ylmethyl)piperidin-3-yl)quinazolin-4(3H)-one]",> 10
6,"COCCn1c([C@@H]2CCCN(CC3COC3)C2)nc2cc(Cl)c(Cl)cc2c1=O [Compound R-14k, (R)-6,7-dichloro-3-(2-methoxyethyl)-2-(1-(oxetan-3-ylmethyl)piperidin-3-yl)quinazolin-4(3H)-one]",> 10
7,"CN(C)CC(=O)N1CCC[C@@H]2c3nc4cc(Cl)c(Cl)cc4c(=O)n3CC[C@H]21 (racemic) [trans-7g, (±)-(4aR,13bS)-10,11-dichloro-4-(dimethylglycyl)-1,2,3,4,4a,5,6,13b-octahydro-8H-[1,6]naphthyridino[5,6-b]quinazolin-8-one]",0.1 to 1
8,"CCN1CCC[C@H]2c3nc4ccccc4c(=O)n3CC[C@H]21 (racemic) [cis-5z, (±)-(4aR,13bR)-4-ethyl-1,2,3,4,4a,5,6,13b-octahydro-8H-[1,6]naphthyridino[5,6-b]quinazolin-8-one]",> 10
9,"Cn1c([C@@H]2CCCN(CCN3CCCC3)C2)nc2cc(Cl)c(Cl)cc2c1=O [Compound R-14dd, (R)-6,7-dichloro-3-methyl-2-(1-(2-(pyrrolidin-1-yl)ethyl)piperidin-3-yl)quinazolin-4(3H)-one]",0.1 to 1
10,"CN1CCC[C@@H]2c3nc4ccc(C(F)(F)F)cc4c(=O)n3CC[C@H]21 [trans-10c-ent-1, (4aR,13bS)-4-methyl-10-(trifluoromethyl)-1,2,3,4,4a,5,6,13b-octahydro-8H-[1,6]naphthyridino[5,6-b]quinazolin-8-one]",0.1 to 1
11,"O=c1c2cc(Cl)c(Cl)cc2nc2n1CC[C@H]1NCCC[C@H]21 (racemic) [trans-6b, (±)-(4aR,13bS)-10,11-dichloro-1,2,3,4,4a,5,6,13b-octahydro-8H-[1,6]naphthyridino[5,6-b]quinazolin-8-one]",1 to 10
12,"COc1cc2nc3n(c(=O)c2cc1Cl)CC[C@@H]1[C@@H]3CCCN1CC1COC1 (racemic) [trans-7dd, (±)-(4aR,13bS)-10-chloro-11-methoxy-4-(oxetan-3-ylmethyl)-1,2,3,4,4a,5,6,13b-octahydro-8H-[1,6]naphthyridino[5,6-b]quinazolin-8-one]",0.0001 to 0.1
13,"CN1CCC[C@H]2c3nc4cc(Cl)c(Cl)cc4c(=O)n3CC[C@H]21 (racemic) [cis-5q, (±)-(4aR,13bR)-10,11-dichloro-4-methyl-1,2,3,4,4a,5,6,13b-octahydro-8H-[1,6]naphthyridino[5,6-b]quinazolin-8-one]",0.1 to 1
14,"COc1cc(Cl)cc2c(=O)n3c(nc12)[C@H]1CCCN(C)[C@@H]1CC3 (racemic) [trans-5t, (±)-(4aR,13bS)-10-chloro-12-methoxy-4-methyl-1,2,3,4,4a,5,6,13b-octahydro-8H-[1,6]naphthyridino[5,6-b]quinazolin-8-one]",> 10
15,"COc1ccc2c(=O)n3c(nc2c1)[C@@H]1CCCN(C)[C@@H]1CC3 (racemic) [cis-50, (±)-(4aR,13bR)-11-methoxy-4-methyl-1,2,3,4,4a,5,6,13b-octahydro-8H-[1,6]naphthyridino[5,6-b]quinazolin-8-one]",1 to 10
16,"CN1CCC[C@@H]2c3nc4cc(C(F)(F)F)ccc4c(=O)n3CC[C@H]21 (racemic) [trans-5n, (±)-(4aR,13bS)-4-methyl-11-(trifluoromethyl)-1,2,3,4,4a,5,6,13b-octahydro-8H-[1,6]naphthyridino[5,6-b]quinazolin-8-one]",0.1 to 1
17,"O=c1c2ccccc2nc2n1CC[C@@H]1[C@@H]2CCCN1Cc1ccccc1 (racemic) [trans-5aa, (±)-(4aR,13bS)-4-benzyl-1,2,3,4,4a,5,6,13b-octahydro-8H-[1,6]naphthyridino[5,6-b]quinazolin-8-one]",> 10
18,"COc1cc2nc3n(c(=O)c2cc1Cl)CC[C@@H]1[C@@H]3CCCN1CC1CCC1 (racemic) [trans-7hh, (±)-(4aR,13bS)-10-chloro-4-(cyclobutylmethyl)-11-methoxy-1,2,3,4,4a,5,6,13b-octahydro-8H-[1,6]naphthyridino[5,6-b]quinazolin-8-one]",0.0001 to 0.1
19,"Cn1c([C@@H]2CCCN(CC3COC3)C2)nc2cnc(Cl)cc2c1=O [Compound R-14n, (R)-6-chloro-3-methyl-2-(1-(oxetan-3-ylmethyl)piperidin-3-yl)pyrido[3,4-d]pyrimidin-4(3H)-one]",> 10
20,"Cc1ccc(-c2ccc3nc4n(c(=O)c3c2)CC[C@@H]2[C@@H]4CCCN2C)cn1 (racemic) [trans-9a, (±)-(4aR,13bS)-4-methyl-10-(6-methylpyridin-3-yl)-1,2,3,4,4a,5,6,13b-octahydro-8H-[1,6]naphthyridino[5,6-b]quinazolin-8-one]",> 10
21,"CN1CCC[C@H]2c3nc4cc(C(F)(F)F)ccc4c(=O)n3CC[C@H]21 (racemic) [cis-5n, (±)-(4aR,13bR)-4-methyl-11-(trifluoromethyl)-1,2,3,4,4a,5,6,13b-octahydro-8H-[1,6]naphthyridino[5,6-b]quinazolin-8-one]",1 to 10
22,"CC(C)OCCN1CCC[C@@H](c2nc3cc(Cl)c(Cl)cc3c(=O)n2C)C1 [Compound R-14aa, (R)-6,7-dichloro-2-(1-(2-isopropoxyethyl)piperidin-3-yl)-3-methylquinazolin-4(3H)-one]",1 to 10
23,"O=c1c2cc(Cl)c(Cl)cc2nc2n1CC[C@@H]1[C@@H]2CCCN1Cc1ccccn1 (racemic) [trans-7o, (±)-(4aR,13bS)-10,11-dichloro-4-(pyridin-2-ylmethyl)-1,2,3,4,4a,5,6,13b-octahydro-8H-[1,6]naphthyridino[5,6-b]quinazolin-8-one]",1 to 10
24,"COc1cc2nc3n(c(=O)c2cc1OC)CC[C@@H]1[C@@H]3CCCN1C (racemic) [trans-5r, (±)-(4aR,13bS)-10,11-dimethoxy-4-methyl-1,2,3,4,4a,5,6,13b-octahydro-8H-[1,6]naphthyridino[5,6-b]quinazolin-8-one]",> 10
25,"Cn1c([C@@H]2CCCN(CC3COC3)C2)nc2ccc(F)cc2c1=O [Compound R-14q, (R)-6-fluoro-3-methyl-2-(1-(oxetan-3-ylmethyl)piperidin-3-yl)quinazolin-4(3H)-one]",> 10
26,"CN1CCC[C@@H]2c3nc4ccc(Br)cc4c(=O)n3CC[C@H]21 (racemic) [trans-5e, (±)-(4aR,13bS)-10-bromo-4-methyl-1,2,3,4,4a,5,6,13b-octahydro-8H-[1,6]naphthyridino[5,6-b]quinazolin-8-one]",1 to 10
27,"COc1cc2nc3n(c(=O)c2cc1C#N)CC[C@@H]1[C@@H]3CCCN1CC1COC1 (racemic) [trans-7kk, (±)-(4aR,13bS)-11-methoxy-4-(oxetan-3-ylmethyl)-8-oxo-2,3,4,4a,5,6,8,13b-octahydro-1H-[1,6]naphthyridino[5,6-b]quinazoline-10-carbonitrile]",0.1 to 1
28,"Cc1ccc2nc3n(c(=O)c2c1)CC[C@@H]1[C@@H]3CCCN1C (racemic) [trans-5h, (±)-(4aR,13bS)-4,10-dimethyl-1,2,3,4,4a,5,6,13b-octahydro-8H-[1,6]naphthyridino[5,6-b]quinazolin-8-one]",1 to 10
29,"COc1cc2nc3n(c(=O)c2cc1Cl)CC[C@@H]1[C@@H]3CCCN1CCN1CCCC1 (racemic) [trans-7nn, (±)-(4aR,13bS)-10-chloro-11-methoxy-4-(2-(pyrrolidin-1-yl)ethyl)-1,2,3,4,4a,5,6,13b-octahydro-8H-[1,6]naphthyridino[5,6-b]quinazolin-8-one]",0.1 to 1

# Same assay, conditions: ATCC30215, positive control, N. fowleri Nf69 trophozoites, 48 h, CellTiter Glo, read-out: N. fowleri EC50
row,SMILES,EC50 [µM]
1,"CCCCCCCCCCCCCCCCOP(=O)([O-])OCC[N+](C)(C)C [Miltefosine, miltefosine, reference compound]",35.7 ± 9.1
